What all share (test): PTP IC50 assay, pNPP or FDP as substrate
Common to all, as to assay type: biochemical

For experiment [1], the target named is T1, PTP ALPHA (Homo sapiens, UniProt P18433).
T1 construct: RTPα intracellular domain construct was obtained; made in house; host or cells: E. coli BL-21 (pGEX 3X)
The following applies: 25° C. How it is done: (§1) The following in vitro assay procedure is preferred to determine the level of activity and effect of the different compounds of the present invention on one or more of the PTPs. Similar assays can be designed along the same lines for any PTP using techniques well known in the art.
(§2) The catalytic assays described herein are performed in a 96-well format. The general procedure begins with the determination of PTP optimal pH using a three-component buffer system that minimizes ionic strength variations across a wide range of buffer pH. Next, the Michaelis-Menten constant, or Km, is determined for each specific substrate-PTP system. This Km value is subsequently used as the substrate reaction concentration for compound screening. Finally, the test PTP is exposed to varying concentrations of compound for fifteen minutes and allowed to react with substrate for ten minutes. The results are plotted as percent inhibition versus compound concentration and the IC50 interpolated from the plot.
(§3) All assays were performed using pNPP or FDP as substrate. The optimum pH was determined for each PTP used.
(§4) PTPase activity was assayed at 25° C. in a 100-μl reaction mixture containing an appropriate concentration of pNPP or FDP as substrate. The reaction was initiated by addition of the PTP and quenched after 10 min by addition of 50 μl of IN NaOH. The non-enzymatic hydrolysis of the substrate was corrected by measuring the control without the addition of the enzyme. The amount of p-nitrophenol produced was determined from the absorbance at 410 nm. To determine the kinetic parameter, Km, the initial velocities were measured at various substrate concentrations and the data were fitted to the Michaelis equation where velocity=(Vmax*[S])/(Km+[S]), and [S]=substrate reaction concentration.
(§5) The effect of the compounds on PTP was evaluated at 25° C. using pNPP or FDP as substrate. PTP was pre-incubated for fifteen minutes with various concentrations of compound. Substrate was then added at a fixed concentration (usually equal to the Km previously calculated). After 10 minutes, NaOH was added to stop the reaction. The hydrolysis of pNPP was followed at 410 nm on the Biotek Powerwave 200 microplate scanning spectrophotometer. The percent inhibition was calculated as follows: Percent Inhibition=[(control signal−compound signal)/control signal] ×100%. The IC50 was then determined by interpolation of a percent inhibition versus compound concentration plot.
(§6) Plasmids designed for bacterial GST-PTP fusion protein expression were derived by insertion of PCR-generated human PTP fragments into pGEX vectors (Pharmacia Biotech). Several of these constructs were then used to subclone phosphatases into pFastBac-1for expression in Sf-9 insect cells. Oligonucleotides used for the initial amplification of PTP genes are shown below. The cDNAs were prepared using the Gilbo BRL superscript preamplification system on RNAs purchased from Clontech.
RTPα intracellular domain construct was obtained, Schlessinger et al., U.S. Pat. No. 5,888,794, the contents of which are hereby incorporated in their entirety into the present application. The RTPα fragment was cloned into pGEX 3× using the following procedure. The portion from EclX I/Xma III/Eag I (N-terminus blunted by Klenow) to Eco RV was cloned into the Sma I site. The EclX I site is approximately 15 residues downstream of the transmembrane domain.

For experiment [2], the target named is T2, PTP 1B (Homo sapiens, UniProt P18031).
T2 construct: made in house; host or cells: Sf-9 insect cells (pFastBac-G2T)
T2 sequence (P18031 1-435): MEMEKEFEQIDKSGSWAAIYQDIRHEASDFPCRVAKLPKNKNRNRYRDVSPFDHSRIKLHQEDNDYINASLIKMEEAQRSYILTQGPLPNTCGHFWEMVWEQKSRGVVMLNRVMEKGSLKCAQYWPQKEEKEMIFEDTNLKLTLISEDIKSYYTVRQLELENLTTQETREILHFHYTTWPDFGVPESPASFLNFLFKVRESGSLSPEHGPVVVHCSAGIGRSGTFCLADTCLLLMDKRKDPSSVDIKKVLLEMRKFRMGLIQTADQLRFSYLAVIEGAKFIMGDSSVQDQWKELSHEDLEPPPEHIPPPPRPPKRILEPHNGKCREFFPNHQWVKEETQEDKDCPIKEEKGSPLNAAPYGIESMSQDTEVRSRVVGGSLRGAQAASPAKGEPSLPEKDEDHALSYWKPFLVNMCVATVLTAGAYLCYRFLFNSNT
The following applies: pNPP or FDP as substrate, 25° C.; read-out: PTP IC50 1B. Here is the method:
as §1, §2, §3, §4, §5, §6
The PTP1b cDNA was amplified from human placenta single strand cDNA (Clontech RNA) using the following oligonucleotides: 5′oligo: 5′-[…] (SEQ ID NO: 4) 3′oligo: 5′-[…] (SEQ ID NO: 5) It was subsequently ligated into pFasBac G2TBamH1Xba-1 sites.

The target of experiment [3] is T3, PTP SHP2 (Homo sapiens, UniProt Q06124).
T3 construct: The catalytic domain was amplified using the following oligonucleotides; made in house; host or cells: Sf-9 insect cells (pFastBac-G2T)
T3 sequence (Q06124 247-517 limits assumed): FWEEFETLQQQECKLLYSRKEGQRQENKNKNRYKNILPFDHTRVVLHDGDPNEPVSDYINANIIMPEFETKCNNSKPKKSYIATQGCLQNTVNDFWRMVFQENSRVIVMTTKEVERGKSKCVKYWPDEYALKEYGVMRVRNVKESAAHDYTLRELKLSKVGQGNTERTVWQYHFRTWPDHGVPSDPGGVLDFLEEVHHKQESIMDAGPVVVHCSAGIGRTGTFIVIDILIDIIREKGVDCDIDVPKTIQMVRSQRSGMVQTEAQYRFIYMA
The conditions noted are these: pNPP or FDP as substrate, 25° C.; read-out: PTP IC50 SHP2. How it is done:
as §1, §2, §3, §4, §5, §6
SHP-2 cDNA was used as described earlier (Vogel W., et al.,1993, Science, 259:1611-4). The catalytic domain was amplified using the following oligonucleotides 5′oligo: 5′-[…]-3′ (SEQ ID NO: 2) 3′oligo: 5′-[…]-3′ (SEQ ID NO: 3) and subsequently subcloned into BamH1-Xba-1 sites. It was then ligated into pfas Bac-G2T BamH1-Xba-1 sites.

Experiment [4] addresses T4, PTP MU (Homo sapiens, UniProt P28827).
T4 construct: made in house; host or cells: E. coli BL-21 (pGEX 6P-1)
The conditions noted are these: pNPP or FDP as substrate, 25° C.; read-out: PTP IC50 Mu. Here is the method:
as §1, §2, §3, §4, §5, §6
The PTP Mu cDNA was amplified from a human lung cDNA library (Clontech) using the following oligonucleotides; 5′oligo: 5′-[…]-3′ (SEQ ID NO: 18) 3′oligo: 5′-[…]-3′ (SEQ ID NO: 19) It was subsequently ligated into the Eco RI/Xho I sites of pGEX 6P-1.

T4 sequence (P28827 831-1186 limits assumed): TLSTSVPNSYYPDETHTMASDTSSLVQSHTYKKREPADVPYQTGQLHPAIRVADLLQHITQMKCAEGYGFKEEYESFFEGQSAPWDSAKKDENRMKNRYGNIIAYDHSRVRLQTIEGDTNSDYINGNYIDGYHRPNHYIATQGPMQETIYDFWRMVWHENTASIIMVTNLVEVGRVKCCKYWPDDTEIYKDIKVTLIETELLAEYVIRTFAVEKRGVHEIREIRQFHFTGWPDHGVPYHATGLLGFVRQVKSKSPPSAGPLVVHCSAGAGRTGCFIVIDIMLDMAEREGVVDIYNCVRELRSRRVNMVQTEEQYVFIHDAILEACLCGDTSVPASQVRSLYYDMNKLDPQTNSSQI

For the molecule `O=S(=O)(c1ccc(COCc2ccc(S(=O)(=O)C(F)(F)F)cc2)cc1)C(F)(F)F` [Example 1, Bis (4-trifluoromethylsulfonylbenzyl) ether], the 50% inhibitory concentration (IC50) (usually the concentration that gives 50% inhibition) is more than 100 µM in experiment [1], more than 100 µM in experiment [2], 2 µM in experiment [3] and more than 100 µM in experiment [4].

`O=S(=O)(c1ccc(COc2ccc(S(=O)(=O)C(F)(F)F)cc2)cc1)C(F)(F)F` [Example 2, 4-Trifluoromethylsulfonylbenzyl 4-trifluoromethylsulfonylphenyl ether]: the half-inhibitory concentration (IC50) in experiment [1] was more than 100 µM; in experiment [2] it was 55.7 µM; in experiment [3] it was 42.6 µM; in experiment [4] it was more than 100 µM.

On to `O=C(c1ccccc1)N(Cc1ccc(S(=O)(=O)C(F)(F)F)cc1)Cc1ccc(S(=O)(=O)C(F)(F)F)cc1` [Example 3, N,N-Bis(4-trifluoromethylsulfonylbenzyl)benzamide], for which the IC50 in experiment [1] is more than 100 µM; in experiment [2], 44.9 µM; in experiment [3] it was 74.5 µM; in experiment [4], more than 100 µM.

Take `O=S(=O)(c1ccc(CCc2ccc(S(=O)(=O)C(F)(F)F)cc2)cc1)C(F)(F)F` [Example 4, 1,2-Bis(4-trifluoromethylsulfonylphenyl)ethane]: the IC50 in experiment [1], in experiment [2], in experiment [3] and in experiment [4] was more than 100 µM each time.

Consider `O=C(NCc1ccc(S(=O)(=O)C(F)(F)F)cc1)c1ccc(S(=O)(=O)C(F)(F)F)cc1` [Example 5, N-(4-Trifluoromethylsulfonylbenzyl)-4-trifluoromethylsulfonylbenzamide], for which the IC50 in experiment [1], in experiment [2], in experiment [3] and in experiment [4] was more than 100 µM in each case.

With `O=C(NCc1ccc(S(=O)(=O)C(F)(F)F)cc1)c1ccccc1` [Example 6, N-(4-Trifluoromethylsulfonylbenzyl)benzamide], the IC50 in experiment [1], in experiment [2], in experiment [3] and in experiment [4] was more than 100 µM throughout.

Turning to `O=C(O)c1ccc(Oc2cccc(Oc3ccc(S(=O)(=O)C(F)(F)F)cc3)c2)cc1` [Example 18, 4-[3-(4-Trifluoromethanesulfonyl-phenoxy)-phenoxy]-benzoic acid], the IC50 came to 40.4 µM in experiment [1], 16.4 µM in experiment [2], 18.4 µM in experiment [3] and 21.6 µM in experiment [4].

Consider `CCOC(=O)COc1ccc(S(=O)(=O)c2ccc(Oc3ccc(S(=O)(=O)C(F)(F)F)cc3)cc2)cc1` [Example 19, {4-[4-(4-trifluoromethanesulfonyl-phenoxy)-benzenesulfonyl]-phenoxy}-acetic acid ethyl ester], for which the IC50 in experiment [1] was more than 100 µM; in experiment [2] it was 42.5 µM; in experiment [3], more than 100 µM; in experiment [4], 69.5 µM.

In the case of `O=C(Cc1ccccc1CC(=O)Nc1cccc(S(=O)(=O)C(F)(F)F)c1)Nc1cccc(S(=O)(=O)C(F)(F)F)c1` [Example 20, N-(3-Trifluoromethanesulfonyl-phenyl)-2-{2-[(3-trifluoromethanesulfonyl-phenylcarbamoyl)-methyl]-phenyl}-acetamide], the IC50 in experiment [1] is more than 100 µM; in experiment [2], 43.3 µM; in experiment [3], 54.3 µM; in experiment [4], 37.9 µM.

As for `O=C(Cc1cccc(CC(=O)Nc2cccc(S(=O)(=O)C(F)(F)F)c2)c1)Nc1cccc(S(=O)(=O)C(F)(F)F)c1` [Example 21, N-(3-Trifluoromethanesulfonyl-phenyl)-2-{3-[(3-trifluoromethanesulfonyl-phenylcarbamoyl)-methyl]-phenyl}-acetamide], the IC50 in experiment [1] was more than 100 µM; in experiment [2], 35.3 µM; in experiment [3] it was 56.8 µM; in experiment [4] it was 47.7 µM.

Regarding `O=C(Cc1ccc(CC(=O)Nc2cccc(S(=O)(=O)C(F)(F)F)c2)cc1)Nc1cccc(S(=O)(=O)C(F)(F)F)c1` [Example 22, N-(3-Trifluoromethanesulfonyl-phenyl)-2-{4-[(3-trifluoromethanesulfonyl-phenylcarbamoyl)-methyl]-phenyl}-acetamide], the 50% inhibitory concentration (IC50) in experiment [1] is more than 100 µM; in experiment [2], 25.7 µM; in experiment [3] it was 16.3 µM; in experiment [4] it was 17.4 µM.

On to `O=[N+]([O-])c1cc(S(=O)(=O)C(F)(F)F)ccc1Oc1cc(CN2CCOCC2)c(Oc2ccc(S(=O)(=O)C(F)(F)F)cc2[N+](=O)[O-])cc1CN1CCOCC1` [Example 23, 3,6-Bis-(morpholin-4-ylmethyl)-2,5-bis-(2-nitro-4-trifluoromethanesulfonyl-phenoxy)-benzene], for which the concentration for half-maximal inhibition (IC50) in experiment [1] is more than 100 µM; in experiment [2] it was 11.6 µM; in experiment [3] it was 27.6 µM; in experiment [4] it was 18.3 µM.

Take `CN(C)CC(COc1ccc(S(=O)(=O)C(F)(F)F)cc1[N+](=O)[O-])Oc1ccc(S(=O)(=O)C(F)(F)F)cc1[N+](=O)[O-]` (centres unmarked) [Example 24, [2,3-Bis-(2-nitro-4-trifluoromethanesulfonyl-phenoxy)-propyl]-dimethyl-amine]: the half-maximal inhibitory concentration (IC50) in experiment [1], in experiment [2], in experiment [3] and in experiment [4] was more than 100 µM throughout.

Regarding `CCNc1ccc(S(=O)(=O)C(F)(F)F)cc1NC(=O)Cc1ccc(S(C)(=O)=O)cc1` [Example 25, N-(2-Ethylamino-5-trifluoromethanesulfonyl-phenyl)-2-(4-methanesulfonyl-phenyl)-acetamide], the concentration for half-maximal inhibition (IC50) in experiment [1] is more than 100 µM; in experiment [2], 16.4 µM; in experiment [3], more than 100 µM; in experiment [4], 48.8 µM.

These data come from patent US6596772B1, “Phosphate mimics and methods of treatment using phosphatase inhibitors” (Sugen, Inc., priority 1999, dated 2003).
